Measurements published in patent publication US20220062299A1, “USE OF GLUCOCORTICOID STEROIDS IN PREVENTING AND TREATING CONDITIONS OF MUSCLE WASTING, AGING AND METABOLIC DISORDER” (NORTHWESTERN UNIVERSITY, priority 2018, published 2022).

Test system: mdx mice
Assay: Dosing of metabolic and endocrine biomarkers in blood, serum and tissues, mdx mice, long-term (40 weeks) weekly prednisone
Assay type: in vivo
Protocol: Animal handling and steroid regimens. Mice were housed in a pathogen-free dedicated vivarium in accordance with Institutional Animal Care and Use Committee (IACUC) guidelines. Euthanasia was performed through carbon dioxide inhalation followed by cervical dislocation and heart removal. All methods using living animals in this study were performed in ethical accordance with the American Veterinary Medical Association (AVMA) and under protocols fully approved by both the Institutional Animal Care and Use Committee (IACUC) at Northwestern University Feinberg School of Medicine (protocol number ISO00000761). Consistent with the ethical approvals, all efforts were made to minimize suffering. Mice were fed ad libitum with Mouse Breeder Sterilizable Diet (#7904; Harlan Teklad, Indianapolis, Ind.) and maintained on a 12-hour light/dark cycle. mdx mice from the DBA/2J background were obtained from the Jackson Laboratory (Bar Harbor, Me.; stock #013141) and interbred. Male mice were used for reported experiments. Age at start was approximately 6 months for short-term experiments, approximately 6 weeks for long-term experiments. Dysferlin-null (Dysf-null) mice from the 129T2/SvEmsJ background were previously characterized (Demonbreun et al., 2011; Demonbreun et al., 2014). Age at start was approximately 9 months for long-term experiments. For experiments with Dysf-null and wildtype mice, both females and males (approximately 1:1 ratio) were randomized in treatment groups. […] Dosing was based on weekly weight measurements (1 mg/kg body weight, (Sali et al., 2012)) in 100 μl total PBS volume per dose. Mice were injected daily via intraperitoneal injection at 7 AM. On injection days, stock solutions stored at −20° C. were diluted into sterile Eppendorf tubes containing sterile phosphate buffered saline (PBS) (#14190; Thermo Fisher, Waltham, Mass.). Puromycin (cat #A1113803, Thermo Scientific, Waltham, Mass.) was administered i.p. as 0.040 μmol/body g, and tissues were snap-frozen 30 minutes after injection. Sterile BD Micro-Fine IV Insulin Syringes (#14-829-1A; Fisher Scientific, Waltham, Mass.) were used to inject the intraperitoneal cavity of non-sedated animals. All animal analyses both during treatment and at endpoint were conducted blinded to treatment groups.
Dosing of metabolic and endocrine biomarkers. Glycogen was quantitated using the Glycogen Assay Kit (#ab65620; Abcam, Cambridge, Mass.) from approximately 25 mg frozen-pulverized whole tissue, following manufacturer's instructions and internal standards for calculating μg/mg values. For measurement of whole-tissue ATP/NAD^+ levels, approximately 25 mg frozen-pulverized tissue was extracted in 10% perchloric acid and neutralized in 0.75 M K2CO3, as previously described (Ramsey et al., 2009). NAD+ and ATP were measured by high-pressure liquid chromatography (HPLC) with Shimadzu LC-20A pump (Shimadzu Scientific Instr Inc, Addison, Ill.) and UV-VIS detector, using a Supelco LC-18-T column (15 cm×[…]; #58970-U; Millipore-Sigma, St Louis, Mo.). […] ATP and NAD^+ eluted as sharp peaks at 3 and 14 minutes, respectively, and were normalized to tissue weight of frozen liver tissue for calculating pmol/mg values. Corticosterone was measured in mouse serum and cortisol was measured in human serum using dedicated ELISA kits (#ADI-900-097, Enzo Life Science, Farmingdale, N.Y.; #K7430-100, BioVision, Milpitas, Calif.) according to manufacturer's instructions and internal standards to calculate ng/ml values. Insulin levels were quantitated in mouse and human serum with species-specific ELISA kits (#10-1247-01 (mouse-specific); #10-1113-01 (human-specific); Mercodia, Uppsala, Sweden), following manufacturer's instructions and internal standards to calculate ng/ml values. Free fatty acids were quantitated using Enzychrom Free Fatty Acid Assay kit (#EFFA-100; BioAssay Systems, Hayward, Calif.), following kit's instructions and standards to calculate μM (serum) and nmol/mg (tissue) values.

With `C[C@]12C=CC(=O)C=C1CC[C@@H]1[C@@H]2C(=O)C[C@@]2(C)[C@H]1CC[C@]2(O)C(=O)CO` [prednisone, Prednisone] the blood glucose was “no change”, the “serum BCAA” value (mean ± s.e.m) was 462 ± 7.32 µM and the serum corticosterone (mean ± s.e.m) was 133 ± 8.36 ng/mL. The serum creatine kinase (mean ± s.e.m) was 3.1 ± 0.16 U/ml, the “serum free fatty acids” value (mean ± s.e.m) was 547 ± 10.4 µM and the serum insulin (mean ± s.e.m) was 1.51 ± 0.14 ng/mL. The “serum β-hydroxybutyrate” value (mean ± s.e.m) was 372 ± 5 µM, the “tissue BCAA, diaphragm” value (mean ± s.e.m) was 49.4 ± 2.14 nmol/mg and the “tissue BCAA, heart” value (mean ± s.e.m) was 1.74 ± 0.08 nmol/mg. The “tissue BCAA, omental fat” value (mean ± s.e.m) was 23.5 ± 0.43 nmol/mg, the “tissue BCAA, quadriceps” value (mean ± s.e.m) was 95.3 ± 3.21 nmol/mg and the “tissue free fatty acids, heart” value (mean ± s.e.m) was 0.211 ± 0.01 nmol/mg. The “tissue free fatty acids, omental fat” value (mean ± s.e.m) was 3.91 ± 0.12 nmol/mg, the “tissue free fatty acids, quadriceps” value (mean ± s.e.m) was 0.752 ± 0.05 nmol/mg and the “tissue β-hydroxybutyrate, diaphragm” value (mean ± s.e.m) was 12.9 ± 0.89 nmol/mg. For the same compound, the “tissue β-hydroxybutyrate, heart” value (mean ± s.e.m) was 20.2 ± 0.51 nmol/mg, the “tissue β-hydroxybutyrate, omental fat” value (mean ± s.e.m) was 23 ± 1.71 nmol/mg and the “tissue β-hydroxybutyrate, quadriceps” value (mean ± s.e.m) was 24.7 ± 1.58 nmol/mg.
